Where “and” joins values, the source holds several entries; their conditions need not be identical. Equal entries are not always repeated. Where two headings read alike, the source gives them in different places.
Experiments:
cells (nuclei count) = conditions: for Toxicity Data: Average, Mean: average of Exp 1-3 (SMW454, SMW466, SMW480), n 9; for Relative cell count to DMSO controls, Average 1 μM / Relative cell count to DMSO controls, Average 5 μM / Relative cell count to DMSO controls, Average 10 μM / Relative cell count to DMSO controls, Average 25 μM / Relative cell count to DMSO controls, Average 50 μM: toxicity data, 100=DMSO control; for Relative cell count to DMSO controls, Average (for correlation analysis): average value over the 5 tested concentrations (1 to 50 uM); for Toxicity Data, Average, Mean: average of Exp 1-3 (SMW475, SMW477, SMW478)
SARS2 = format: cell-based, SARS-CoV-2; conditions: for Percentage Inhibition Average 1 μM / Screening data (Relative infection to DMSO controls) Average 1 μM: SARS2, 1 μM; for Screening data (Relative infection to DMSO controls) Average 1 μM / Screening data (Relative infection to DMSO controls) Average 5 μM / Screening data (Relative infection to DMSO controls) Average 10 μM / Screening data (Relative infection to DMSO controls) Average 25 μM / Screening data (Relative infection to DMSO controls) Average 50 μM / Average (relative infection to DMSO over the 5 tested concentrations): 100=DMSO control; for Percentage Inhibition Average 5 μM / Screening data (Relative infection to DMSO controls) Average 5 μM: SARS2, 5 μM; for Percentage Inhibition Average 10 μM / Screening data (Relative infection to DMSO controls) Average 10 μM: SARS2, 10 μM; for Percentage Inhibition Average 25 μM / Screening data (Relative infection to DMSO controls) Average 25 μM: SARS2, 25 μM; for Percentage Inhibition Average 50 μM / Screening data (Relative infection to DMSO controls) Average 50 μM: SARS2, 50 μM; for Average (relative infection to DMSO over the 5 tested concentrations): SARS2, average over 1 to 50 uM; for Infection Data, Average, Mean: average of Exp 1-3 (SMW475, SMW477, SMW478)

## CN(C)CCN(Cc1ccsc1)Cc1ccco1 [SILCS12]
Cells (nuclei count); 1 uM
  Toxicity Data: Average, Mean: 103.58%
Cells (nuclei count)
  Relative cell count to DMSO controls, Average 1 μM: 103.58
  Relative cell count to DMSO controls, Average 5 μM: 102.7
  Relative cell count to DMSO controls, Average 10 μM: 96.1
  Relative cell count to DMSO controls, Average 25 μM: 95.34
  Relative cell count to DMSO controls, Average 50 μM: 66.97
  Relative cell count to DMSO controls, Average (for correlation analysis): 92.94
Cells (nuclei count); 5 uM
  Toxicity Data: Average, Mean: 102.70%
Cells (nuclei count); 10 uM
  Toxicity Data: Average, Mean: 96.10%
Cells (nuclei count); 25 uM
  Toxicity Data: Average, Mean: 95.34%
Cells (nuclei count); 50 uM
  Toxicity Data: Average, Mean: 66.97%
SARS2
  Percentage Infection Relative to DMSO Control, Average, Mean: 76.66% and 135.12% and 110.30% and 109.01% and 120.43%
  Percentage Inhibition Average 1 μM: −20.43%
  Screening data (Relative infection to DMSO controls) Average 1 μM: 120.43
  Percentage Inhibition Average 5 μM: −9.01%
  Screening data (Relative infection to DMSO controls) Average 5 μM: 109.01
  Percentage Inhibition Average 10 μM: −10.30%
  Screening data (Relative infection to DMSO controls) Average 10 μM: 110.30
  Percentage Inhibition Average 25 μM: −35.12%
  Screening data (Relative infection to DMSO controls) Average 25 μM: 135.12
  Percentage Inhibition Average 50 μM: 23.34%
  Screening data (Relative infection to DMSO controls) Average 50 μM: 76.66
  Average (relative infection to DMSO over the 5 tested concentrations): 110.30

## COc1ccc(-c2[nH]ncc2C(=O)NCC2CCC2)cc1OC [SILCS54]
Cells (nuclei count)
  Relative cell count to DMSO controls, Average 1 μM: 100.58
  Relative cell count to DMSO controls, Average 5 μM: 101.65
  Relative cell count to DMSO controls, Average 10 μM: 100.51
  Relative cell count to DMSO controls, Average 25 μM: 99.71
  Relative cell count to DMSO controls, Average 50 μM: 88.29
  Relative cell count to DMSO controls, Average (for correlation analysis): 98.15
SARS2
  Percentage Inhibition Average 1 μM: 0.61%
  Screening data (Relative infection to DMSO controls) Average 1 μM: 99.39
  Percentage Inhibition Average 5 μM: 7.12%
  Screening data (Relative infection to DMSO controls) Average 5 μM: 92.88
  Percentage Inhibition Average 10 μM: 10.70%
  Screening data (Relative infection to DMSO controls) Average 10 μM: 89.30
  Percentage Inhibition Average 25 μM: −5.10%
  Screening data (Relative infection to DMSO controls) Average 25 μM: 105.10
  Percentage Inhibition Average 50 μM: −13.08%
  Screening data (Relative infection to DMSO controls) Average 50 μM: 113.08
  Average (relative infection to DMSO over the 5 tested concentrations): 99.95

## COC(=O)c1csc(CN(CCN(C)C)Cc2ccccc2)c1 [SILCS30]
Cells (nuclei count)
  Relative cell count to DMSO controls, Average 1 μM: 108.24
  Relative cell count to DMSO controls, Average 5 μM: 110.62
  Relative cell count to DMSO controls, Average 10 μM: 102.59
  Relative cell count to DMSO controls, Average 25 μM: 104.38
  Relative cell count to DMSO controls, Average 50 μM: 86.57
  Relative cell count to DMSO controls, Average (for correlation analysis): 102.48
Cells (nuclei count); n 9, 1 uM
  Toxicity Data, Average, Mean: 108.24%
Cells (nuclei count); n 9, 5 uM
  Toxicity Data, Average, Mean: 110.62%
Cells (nuclei count); n 9, 10 uM
  Toxicity Data, Average, Mean: 102.59%
Cells (nuclei count); n 9, 25 uM
  Toxicity Data, Average, Mean: 104.38%
Cells (nuclei count); n 9, 50 uM
  Toxicity Data, Average, Mean: 86.57%
SARS2
  SARS2 antiviral activity: decrease in activity
  Percentage Inhibition Average 1 μM: −0.21%
  Screening data (Relative infection to DMSO controls) Average 1 μM: 100.21
  Percentage Inhibition Average 5 μM: 15.19%
  Screening data (Relative infection to DMSO controls) Average 5 μM: 84.81
  Percentage Inhibition Average 10 μM: 1.46%
  Screening data (Relative infection to DMSO controls) Average 10 μM: 98.54
  Percentage Inhibition Average 25 μM: 32.80%
  Screening data (Relative infection to DMSO controls) Average 25 μM: 67.20
  Percentage Inhibition Average 50 μM: 75.16%
  Screening data (Relative infection to DMSO controls) Average 50 μM: 24.84
  Average (relative infection to DMSO over the 5 tested concentrations): 75.12
SARS2; Exp 1 (SMW475), 1 uM, single well
  Percentage Infection Relative to Appropriate DMSO Control with Avg Background Subtraction: 105.27% and 104.72% and 85.58%
SARS2; Exp 1 (SMW475), 10 uM, single well
  Percentage Infection Relative to Appropriate DMSO Control with Avg Background Subtraction: 111.40% and 92.91% and 108.37%
SARS2; Exp 1 (SMW475), 25 uM, single well
  Percentage Infection Relative to Appropriate DMSO Control with Avg Background Subtraction: 63.92% and 51.24% and 55.41%
SARS2; Exp 1 (SMW475), 50 uM, single well
  Percentage Infection Relative to Appropriate DMSO Control with Avg Background Subtraction: 32.13% and 25.36% and 23.71%
SARS2; Exp 2 (SMW477), 1 uM, single well
  Percentage Infection Relative to Appropriate DMSO Control with Avg Background Subtraction: 113.51% and 96.27% and 114.57%
SARS2; Exp 2 (SMW477), 5 uM, single well
  Percentage Infection Relative to Appropriate DMSO Control with Avg Background Subtraction: 117.23% and 99.87% and 114.31%
SARS2; Exp 2 (SMW477), 10 uM, single well
  Percentage Infection Relative to Appropriate DMSO Control with Avg Background Subtraction: 121.60% and 100.99% and 139.28%
SARS2; Exp 2 (SMW477), 25 uM, single well
  Percentage Infection Relative to Appropriate DMSO Control with Avg Background Subtraction: 71.18% and 69.34% and 78.15%
SARS2; Exp 2 (SMW477), 50 uM, single well
  Percentage Infection Relative to Appropriate DMSO Control with Avg Background Subtraction: 17.82% and 25.00% and 26.06%
SARS2; Exp 3 (SMW478), 1 uM, Greiner Celigo plates
  Percentage Infection Relative to Appropriate DMSO Control with Avg Background Subtraction: 81.75% and 100.71% and 99.49%
SARS2; Exp 3 (SMW478), 5 uM, Greiner Celigo plates
  Percentage Infection Relative to Appropriate DMSO Control with Avg Background Subtraction: 89.39% and 93.72% and 82.15%
SARS2; Exp 3 (SMW478), 10 uM, Greiner Celigo plates
  Percentage Infection Relative to Appropriate DMSO Control with Avg Background Subtraction: 73.78% and 69.60% and 68.94%
SARS2; Exp 3 (SMW478), 25 uM, Greiner Celigo plates
  Percentage Infection Relative to Appropriate DMSO Control with Avg Background Subtraction: 79.03% and 71.83% and 64.72%
SARS2; n 9, 1 uM
  Infection Data, Average, Mean: 100.21%
SARS2; n 9, 5 uM
  Infection Data, Average, Mean: 84.81%
SARS2; n 9, 10 uM
  Infection Data, Average, Mean: 98.54%
SARS2; n 9, 25 uM
  Infection Data, Average, Mean: 67.20%
SARS2; n 9, 50 uM
  Infection Data, Average, Mean: 24.84%

## COc1ccc(C2NC(=O)NC(C)=C2C(=O)NCC2CCCCC2)cc1OC (centres unmarked) [SILCS63]
Cells (nuclei count)
  Relative cell count to DMSO controls, Average 1 μM: 106.9
  Relative cell count to DMSO controls, Average 5 μM: 114.55
  Relative cell count to DMSO controls, Average 10 μM: 101.91
  Relative cell count to DMSO controls, Average 25 μM: 91.46
  Relative cell count to DMSO controls, Average 50 μM: 78.57
  Relative cell count to DMSO controls, Average (for correlation analysis): 98.68
SARS2
  Percentage Inhibition Average 1 μM: 19.08%
  Screening data (Relative infection to DMSO controls) Average 1 μM: 80.92
  Percentage Inhibition Average 5 μM: 53.97%
  Screening data (Relative infection to DMSO controls) Average 5 μM: 46.03
  Percentage Inhibition Average 10 μM: 7.81%
  Screening data (Relative infection to DMSO controls) Average 10 μM: 92.19
  Percentage Inhibition Average 25 μM: −18.04%
  Screening data (Relative infection to DMSO controls) Average 25 μM: 118.04
  Percentage Inhibition Average 50 μM: −21.48%
  Screening data (Relative infection to DMSO controls) Average 50 μM: 121.48
  Average (relative infection to DMSO over the 5 tested concentrations): 91.73

Source: patent US20240132484A1, “BROAD SPECTRUM ANTIVIRAL COMPOUNDS TARGETING THE SKI COMPLEX” (priority 2020, published 2024)
